# From the SangsterLogP compilation
# Experiment: not given
row,logP,SMILES
1,3.54,BrC1CC2CCC1C2 (stereo unspecified)
2,3.11,BrC12CC3CC1C2C3

# Experiment: method code SF-AS, from DOI: 10.1021/je9900629
row,logP,SMILES
1,2.67,C1=CC2C=CC1C2
2,3.24,C1=CC2CCC1C2
3,1.24,OC1CC2C=CC1C2 (stereo unspecified)

# Experiment: method code SF-HPLC, from DOI: 10.1021/je9900629
row,SMILES,logP
1,ClC1CC2CCC1C2 (stereo unspecified),3.35
2,C1CC2CCC1C2,3.78
3,C1C2C3C2C2C1C32 (stereo unspecified),2.9
4,C1CC2CC1C1OC21 (stereo unspecified),1.58
5,OC(C1CC1)C1CC1,1.07
6,OC1C2CC3C1C3C2O (stereo unspecified),-0.42

# The next lines start with the values.
row,logP,SMILES
1,0.4,OC1CC2CCC1C2O (stereo unspecified)
2,0.81,O=C1C2CC3C(C2)C13
3,1.99,OCC1CC2CCC1C2 (stereo unspecified)
4,0.4,OC1C2CCC(C2)C1O (stereo unspecified)
5,1.45,OC1CC2CCC1C2 (stereo unspecified)
